What was measured:
Test in all cases: kinobeads assay with mass spectrometry detection of kinases (kinase selectivity profile)
Type in all cases: binding
[1] = biological target: T1, kinases (kinome) (Homo sapiens, UniProt Q02750); conditions: MAP2K1 (STE), IPI00219604
T1 construct: determined in kinobeads assays with mass spectrometry detection of kinases as described previously; endogenous in cells; host or cells: cell lysate
Description: (§1) The protein kinase complement of the human genome (the kinome) was described previously (Manning et al., 2002. Science 298(5600):1912-1934). Sequence accession numbers are defined by the International Protein Index (IPI) (Kersey et al., 2004. Proteomics 4(7):1985-1988).

[2] = biological target: T2, kinases (kinome) (Homo sapiens, UniProt Q05655); conditions: PKCd (AGC), IPI00329236
T2 construct: determined in kinobeads assays with mass spectrometry detection of kinases as described previously; endogenous in cells; host or cells: cell lysate
Description: as §1

[3] = biological target: T3, kinases (kinome) (Homo sapiens, UniProt Q08881); conditions: ITK (TK), IPI00004566
T3 construct: determined in kinobeads assays with mass spectrometry detection of kinases as described previously; endogenous in cells; host or cells: cell lysate
T3 sequence (Q08881 1-620): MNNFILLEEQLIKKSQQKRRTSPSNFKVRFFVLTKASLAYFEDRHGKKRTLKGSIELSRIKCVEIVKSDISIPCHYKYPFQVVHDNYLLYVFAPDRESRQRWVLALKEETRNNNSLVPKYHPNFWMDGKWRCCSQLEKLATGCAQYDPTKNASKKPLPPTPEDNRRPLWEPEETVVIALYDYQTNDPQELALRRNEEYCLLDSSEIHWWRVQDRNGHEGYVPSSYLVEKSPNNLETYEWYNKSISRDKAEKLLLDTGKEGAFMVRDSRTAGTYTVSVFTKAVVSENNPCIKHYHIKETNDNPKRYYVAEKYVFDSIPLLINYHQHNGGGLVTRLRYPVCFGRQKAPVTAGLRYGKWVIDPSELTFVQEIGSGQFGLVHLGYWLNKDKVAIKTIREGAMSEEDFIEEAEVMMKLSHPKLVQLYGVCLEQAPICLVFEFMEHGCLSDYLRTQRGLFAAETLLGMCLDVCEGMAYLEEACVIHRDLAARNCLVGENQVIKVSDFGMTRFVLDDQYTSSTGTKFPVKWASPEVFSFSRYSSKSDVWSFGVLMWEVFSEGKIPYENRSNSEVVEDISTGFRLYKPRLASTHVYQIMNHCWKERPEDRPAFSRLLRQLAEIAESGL
Description: as §1

[4] = biological target: T4, kinases (kinome) (Homo sapiens, UniProt P00519); conditions: ABL (TK), IPI00221171
T4 construct: determined in kinobeads assays with mass spectrometry detection of kinases as described previously; endogenous in cells; host or cells: cell lysate
Description: as §1

[5] = biological target: T5, kinases (kinome) (Homo sapiens, UniProt Q9BYT3); conditions: STK33 (CAMK), IPI00302351
T5 construct: determined in kinobeads assays with mass spectrometry detection of kinases as described previously; endogenous in cells; host or cells: cell lysate
Description: as §1

[6] = biological target: T6, kinases (kinome) (Homo sapiens, UniProt P53667); conditions: LIMK1 (TKL), IPI00291702
T6 construct: determined in kinobeads assays with mass spectrometry detection of kinases as described previously; endogenous in cells; host or cells: cell lysate
Description: as §1

[7] = biological target: T7, kinases (kinome) (Homo sapiens, UniProt P51955); conditions: NEK2 (Other), IPI00021331
T7 construct: determined in kinobeads assays with mass spectrometry detection of kinases as described previously; endogenous in cells; host or cells: cell lysate
T7 sequence (P51955 1-445): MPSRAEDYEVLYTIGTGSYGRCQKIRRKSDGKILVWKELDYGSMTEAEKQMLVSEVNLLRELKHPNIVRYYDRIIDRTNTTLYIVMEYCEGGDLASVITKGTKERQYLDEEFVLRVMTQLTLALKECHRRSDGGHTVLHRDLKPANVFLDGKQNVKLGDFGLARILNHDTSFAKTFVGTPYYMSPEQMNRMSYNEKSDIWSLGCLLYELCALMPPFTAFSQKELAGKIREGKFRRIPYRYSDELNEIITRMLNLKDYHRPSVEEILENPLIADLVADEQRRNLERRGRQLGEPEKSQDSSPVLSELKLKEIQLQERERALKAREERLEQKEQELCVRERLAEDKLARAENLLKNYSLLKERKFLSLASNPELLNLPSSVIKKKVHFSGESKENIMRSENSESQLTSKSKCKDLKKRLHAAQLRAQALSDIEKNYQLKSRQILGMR
Description: as §1

[8] = biological target: T8, kinases (kinome) (Homo sapiens, UniProt P49760); conditions: CLK2 (CMGC), IPI00028071
T8 construct: determined in kinobeads assays with mass spectrometry detection of kinases as described previously; endogenous in cells; host or cells: cell lysate
Description: as §1

Measured: IC50

T6 sequence (P53667 whole entry): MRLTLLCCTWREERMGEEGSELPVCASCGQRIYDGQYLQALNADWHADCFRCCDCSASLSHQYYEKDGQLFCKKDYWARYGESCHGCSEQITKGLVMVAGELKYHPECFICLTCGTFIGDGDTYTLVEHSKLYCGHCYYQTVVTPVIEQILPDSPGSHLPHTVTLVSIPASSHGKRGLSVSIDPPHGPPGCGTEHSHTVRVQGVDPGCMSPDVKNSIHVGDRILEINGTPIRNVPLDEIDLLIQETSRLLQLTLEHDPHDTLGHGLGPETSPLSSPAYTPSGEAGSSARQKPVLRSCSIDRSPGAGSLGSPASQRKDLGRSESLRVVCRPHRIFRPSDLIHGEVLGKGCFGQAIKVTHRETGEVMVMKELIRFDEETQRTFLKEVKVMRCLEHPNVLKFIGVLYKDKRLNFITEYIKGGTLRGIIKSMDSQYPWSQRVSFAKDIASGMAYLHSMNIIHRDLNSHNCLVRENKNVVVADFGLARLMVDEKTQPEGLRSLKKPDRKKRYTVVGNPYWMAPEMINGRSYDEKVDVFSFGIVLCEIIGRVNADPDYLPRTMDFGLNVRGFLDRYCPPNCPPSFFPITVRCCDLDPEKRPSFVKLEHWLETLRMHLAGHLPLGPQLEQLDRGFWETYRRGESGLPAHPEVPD
T5 sequence (Q9BYT3 whole entry): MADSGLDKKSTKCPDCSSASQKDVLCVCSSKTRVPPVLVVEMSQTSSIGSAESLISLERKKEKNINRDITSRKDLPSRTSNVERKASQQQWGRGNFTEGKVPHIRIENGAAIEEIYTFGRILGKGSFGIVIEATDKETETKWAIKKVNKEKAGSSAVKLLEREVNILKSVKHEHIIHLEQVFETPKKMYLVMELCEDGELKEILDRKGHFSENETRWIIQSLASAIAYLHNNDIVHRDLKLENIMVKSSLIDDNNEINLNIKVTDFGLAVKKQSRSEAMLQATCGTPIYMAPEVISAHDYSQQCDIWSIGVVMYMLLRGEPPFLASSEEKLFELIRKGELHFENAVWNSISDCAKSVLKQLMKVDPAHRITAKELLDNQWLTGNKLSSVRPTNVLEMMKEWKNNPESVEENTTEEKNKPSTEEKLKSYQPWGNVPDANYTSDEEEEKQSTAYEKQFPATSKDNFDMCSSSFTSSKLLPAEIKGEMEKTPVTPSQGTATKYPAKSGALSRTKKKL
T8 sequence (P49760 whole entry): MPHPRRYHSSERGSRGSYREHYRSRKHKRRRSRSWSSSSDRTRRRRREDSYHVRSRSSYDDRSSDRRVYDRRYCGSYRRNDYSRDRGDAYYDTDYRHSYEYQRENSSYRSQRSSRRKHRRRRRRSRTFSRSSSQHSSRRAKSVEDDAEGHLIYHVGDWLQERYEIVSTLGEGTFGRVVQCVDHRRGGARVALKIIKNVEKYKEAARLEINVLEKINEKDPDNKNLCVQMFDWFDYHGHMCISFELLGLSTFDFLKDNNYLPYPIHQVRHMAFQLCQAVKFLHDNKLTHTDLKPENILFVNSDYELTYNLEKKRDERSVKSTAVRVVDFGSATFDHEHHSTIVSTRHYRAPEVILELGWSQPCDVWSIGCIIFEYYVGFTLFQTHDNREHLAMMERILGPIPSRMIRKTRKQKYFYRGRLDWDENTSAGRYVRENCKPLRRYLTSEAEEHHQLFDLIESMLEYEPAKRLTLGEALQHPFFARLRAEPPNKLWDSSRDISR
T4 sequence (P00519 whole entry): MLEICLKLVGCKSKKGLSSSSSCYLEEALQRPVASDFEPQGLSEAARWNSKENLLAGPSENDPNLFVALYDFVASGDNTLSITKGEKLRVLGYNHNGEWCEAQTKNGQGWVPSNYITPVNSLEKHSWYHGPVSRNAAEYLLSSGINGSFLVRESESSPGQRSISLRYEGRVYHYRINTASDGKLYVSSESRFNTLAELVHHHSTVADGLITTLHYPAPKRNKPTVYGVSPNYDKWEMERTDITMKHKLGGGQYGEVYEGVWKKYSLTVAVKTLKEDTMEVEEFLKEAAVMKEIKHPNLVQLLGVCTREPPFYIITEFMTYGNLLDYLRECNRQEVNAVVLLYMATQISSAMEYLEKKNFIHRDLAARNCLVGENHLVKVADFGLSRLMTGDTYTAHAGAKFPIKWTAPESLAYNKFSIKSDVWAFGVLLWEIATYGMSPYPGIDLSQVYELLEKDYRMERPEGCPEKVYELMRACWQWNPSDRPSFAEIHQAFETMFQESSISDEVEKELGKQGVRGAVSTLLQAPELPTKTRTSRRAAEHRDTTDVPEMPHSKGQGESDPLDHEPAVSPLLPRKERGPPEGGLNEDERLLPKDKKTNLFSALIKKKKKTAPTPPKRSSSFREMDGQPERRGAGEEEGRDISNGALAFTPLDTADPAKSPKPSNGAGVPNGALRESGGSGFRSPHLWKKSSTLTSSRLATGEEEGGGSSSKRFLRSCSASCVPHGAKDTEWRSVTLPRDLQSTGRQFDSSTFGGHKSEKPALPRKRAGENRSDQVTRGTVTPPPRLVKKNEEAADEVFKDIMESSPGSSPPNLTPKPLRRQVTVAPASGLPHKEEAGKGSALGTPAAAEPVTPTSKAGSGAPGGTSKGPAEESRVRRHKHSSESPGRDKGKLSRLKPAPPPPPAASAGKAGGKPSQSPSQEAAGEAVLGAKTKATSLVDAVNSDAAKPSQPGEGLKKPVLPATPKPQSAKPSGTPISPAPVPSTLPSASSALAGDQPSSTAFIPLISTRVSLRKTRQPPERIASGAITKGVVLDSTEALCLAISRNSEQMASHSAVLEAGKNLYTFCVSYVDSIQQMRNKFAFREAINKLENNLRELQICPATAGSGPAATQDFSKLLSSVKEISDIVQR
T1 sequence (Q02750 whole entry): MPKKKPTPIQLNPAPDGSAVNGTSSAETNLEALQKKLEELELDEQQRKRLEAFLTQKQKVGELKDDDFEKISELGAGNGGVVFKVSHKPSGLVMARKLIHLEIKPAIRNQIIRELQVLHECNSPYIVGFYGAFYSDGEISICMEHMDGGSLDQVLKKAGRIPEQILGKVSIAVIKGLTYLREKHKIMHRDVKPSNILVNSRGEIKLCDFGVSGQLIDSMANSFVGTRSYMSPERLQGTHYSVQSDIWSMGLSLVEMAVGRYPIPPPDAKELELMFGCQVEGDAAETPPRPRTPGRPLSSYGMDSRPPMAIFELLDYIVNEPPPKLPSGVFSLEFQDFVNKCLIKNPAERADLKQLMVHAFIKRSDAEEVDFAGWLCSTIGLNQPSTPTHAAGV
T2 sequence (Q05655 whole entry): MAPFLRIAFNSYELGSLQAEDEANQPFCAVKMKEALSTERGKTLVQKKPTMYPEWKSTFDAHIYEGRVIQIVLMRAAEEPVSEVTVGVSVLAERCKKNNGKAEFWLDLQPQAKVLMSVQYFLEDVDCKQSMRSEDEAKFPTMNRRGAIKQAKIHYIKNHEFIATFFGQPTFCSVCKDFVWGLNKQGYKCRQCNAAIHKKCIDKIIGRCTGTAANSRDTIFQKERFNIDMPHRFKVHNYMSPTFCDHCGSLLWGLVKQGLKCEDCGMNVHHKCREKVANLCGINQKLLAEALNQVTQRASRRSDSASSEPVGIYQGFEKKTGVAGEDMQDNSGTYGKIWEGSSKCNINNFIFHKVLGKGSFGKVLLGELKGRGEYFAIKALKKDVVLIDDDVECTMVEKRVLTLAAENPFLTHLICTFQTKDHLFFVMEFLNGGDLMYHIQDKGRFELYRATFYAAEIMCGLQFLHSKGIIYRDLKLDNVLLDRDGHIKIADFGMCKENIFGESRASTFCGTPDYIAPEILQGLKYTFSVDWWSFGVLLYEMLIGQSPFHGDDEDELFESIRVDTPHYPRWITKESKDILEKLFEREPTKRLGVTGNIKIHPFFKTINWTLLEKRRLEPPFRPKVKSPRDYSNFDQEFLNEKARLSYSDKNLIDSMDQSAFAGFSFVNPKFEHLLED

C[C@H]1COCCN1c1nc(-c2ccc(NC(=O)NC3CC3)cc2)cc(-c2ccccc2S(C)(=O)=O)n1 [Example 4, (S)-1-cyclopropyl-3-(4-(2-(3-methylmorpholino)-6-(2-(methylsulfonyl)phenyl)pyrimidin-4-yl)phenyl)urea]
not listed: [8]
> 10 µM: all other assays above

C[C@H]1COCCN1c1cc(-c2ccccc2S(C)(=O)=O)nc(-c2ccc(NC(=O)NC3CC3)cc2)n1 [Example 6, (S)-1-cyclopropyl-3-(4-(4-(3-methylmorpholino)-6-(2-(methylsulfonyl)phenyl)pyrimidin-2-yl)phenyl)urea]
> 10 µM: [3] | [6] | [7]

CCNC(=O)Nc1ccc(-c2cc(-c3ccccc3C#N)nc(N3CCOC[C@@H]3C)n2)cc1 [Example 8, (S)-1-(4-(6-(2-cyanophenyl)-2-(3-methylmorpholino)pyrimidin-4-yl)phenyl)-3-ethylurea]
> 10 µM: [3] | [6] | [7] | [8]

C[C@H]1COCCN1c1nc(-c2ccc(NC(=O)NC3CC3)cc2)cc(-c2cc(F)ccc2S(C)(=O)=O)n1 [Example 40, (S)-1-cyclopropyl-3-(4-(6-(5-fluoro-2-(methylsulfonyl)phenyl)-2-(3-methylmorpholino)pyrimidin-4-yl)phenyl)urea]
not listed: [8]
> 10 µM: all other assays above

C[C@H]1COCCN1c1cc(-c2ccccn2)nc(-c2ccc(NC(=O)NCCO)cc2)n1 [Example 43, (S)-1-(2-hydroxyethyl)-3-(4-(4-(3-methylmorpholino)-6-(pyridin-2-yl)pyrimidin-2-yl)phenyl)urea]
not listed: [4] | [5]
> 10 µM: all other assays above

C[C@H]1COCCN1c1nc(-c2ccc(NC(=O)NC3CC3)cc2)cc(-c2cccnc2S(C)(=O)=O)n1 [Example 46, (S)-1-cyclopropyl-3-(4-(2-(3-methylmorpholino)-6-(2-(methylsulfonyl)pyridin-3-yl)pyrimidin-4-yl)phenyl)urea]
not listed: [4]
> 10 µM: all other assays above

C[C@H]1COCCN1c1nc(-c2ccc(NC(=O)N[C@H]3CCC[C@@H]3O)cc2)cc(-c2cc(F)ccc2S(C)(=O)=O)n1 [Example 76, 1-(4-(6-(5-fluoro-2-(methylsulfonyl)phenyl)-2-((S)-3-methylmorpholino)pyrimidin-4-yl)phenyl)-3-((1S,2S)-2-hydroxycyclopentyl)urea]
not listed: [5] | [8]
> 10 µM: all other assays above

— patent publication US9249129B2, “Morpholino substituted urea derivatives as mTOR inhibitors” (CELLZOME LIMITED, priority 2010, dated 2016)
